# Laboratory results from patent US9340590B2 (priority 2011, dated 2016).
# pIC50: −log10 of the molar value. Like-named read-outs stand apart in the source and are kept apart here. Positions of bridges follow the written chain, without caps; N, C: chain ends. Residues, ends and D or L forms follow the SMILES beside them.
# Columns and labels:
# Experiment in all cases: cell-based
# hNav1.5 = hNav1.5 (Homo sapiens, UniProt Q14524); details: IonWorks Quattro, read-out: IWQ Use Nav1.5
# hNav1.3 = hNav1.3 (Homo sapiens, UniProt Q9NY46); details: IonWorks Quattro, read-out: IWQ Use Nav1.3
# hNav1.7 = hNav1.7 (Homo sapiens, UniProt Q15858); format: cell-based; details: IonWorks Quattro, read-out: IWQ Use Nav1.7
# [1] = clamped to −110 mV, depolarized to −10 mV, 5 min after compound, n=2
# Sequence of hNav1.5 (Q14524 whole entry, looked up): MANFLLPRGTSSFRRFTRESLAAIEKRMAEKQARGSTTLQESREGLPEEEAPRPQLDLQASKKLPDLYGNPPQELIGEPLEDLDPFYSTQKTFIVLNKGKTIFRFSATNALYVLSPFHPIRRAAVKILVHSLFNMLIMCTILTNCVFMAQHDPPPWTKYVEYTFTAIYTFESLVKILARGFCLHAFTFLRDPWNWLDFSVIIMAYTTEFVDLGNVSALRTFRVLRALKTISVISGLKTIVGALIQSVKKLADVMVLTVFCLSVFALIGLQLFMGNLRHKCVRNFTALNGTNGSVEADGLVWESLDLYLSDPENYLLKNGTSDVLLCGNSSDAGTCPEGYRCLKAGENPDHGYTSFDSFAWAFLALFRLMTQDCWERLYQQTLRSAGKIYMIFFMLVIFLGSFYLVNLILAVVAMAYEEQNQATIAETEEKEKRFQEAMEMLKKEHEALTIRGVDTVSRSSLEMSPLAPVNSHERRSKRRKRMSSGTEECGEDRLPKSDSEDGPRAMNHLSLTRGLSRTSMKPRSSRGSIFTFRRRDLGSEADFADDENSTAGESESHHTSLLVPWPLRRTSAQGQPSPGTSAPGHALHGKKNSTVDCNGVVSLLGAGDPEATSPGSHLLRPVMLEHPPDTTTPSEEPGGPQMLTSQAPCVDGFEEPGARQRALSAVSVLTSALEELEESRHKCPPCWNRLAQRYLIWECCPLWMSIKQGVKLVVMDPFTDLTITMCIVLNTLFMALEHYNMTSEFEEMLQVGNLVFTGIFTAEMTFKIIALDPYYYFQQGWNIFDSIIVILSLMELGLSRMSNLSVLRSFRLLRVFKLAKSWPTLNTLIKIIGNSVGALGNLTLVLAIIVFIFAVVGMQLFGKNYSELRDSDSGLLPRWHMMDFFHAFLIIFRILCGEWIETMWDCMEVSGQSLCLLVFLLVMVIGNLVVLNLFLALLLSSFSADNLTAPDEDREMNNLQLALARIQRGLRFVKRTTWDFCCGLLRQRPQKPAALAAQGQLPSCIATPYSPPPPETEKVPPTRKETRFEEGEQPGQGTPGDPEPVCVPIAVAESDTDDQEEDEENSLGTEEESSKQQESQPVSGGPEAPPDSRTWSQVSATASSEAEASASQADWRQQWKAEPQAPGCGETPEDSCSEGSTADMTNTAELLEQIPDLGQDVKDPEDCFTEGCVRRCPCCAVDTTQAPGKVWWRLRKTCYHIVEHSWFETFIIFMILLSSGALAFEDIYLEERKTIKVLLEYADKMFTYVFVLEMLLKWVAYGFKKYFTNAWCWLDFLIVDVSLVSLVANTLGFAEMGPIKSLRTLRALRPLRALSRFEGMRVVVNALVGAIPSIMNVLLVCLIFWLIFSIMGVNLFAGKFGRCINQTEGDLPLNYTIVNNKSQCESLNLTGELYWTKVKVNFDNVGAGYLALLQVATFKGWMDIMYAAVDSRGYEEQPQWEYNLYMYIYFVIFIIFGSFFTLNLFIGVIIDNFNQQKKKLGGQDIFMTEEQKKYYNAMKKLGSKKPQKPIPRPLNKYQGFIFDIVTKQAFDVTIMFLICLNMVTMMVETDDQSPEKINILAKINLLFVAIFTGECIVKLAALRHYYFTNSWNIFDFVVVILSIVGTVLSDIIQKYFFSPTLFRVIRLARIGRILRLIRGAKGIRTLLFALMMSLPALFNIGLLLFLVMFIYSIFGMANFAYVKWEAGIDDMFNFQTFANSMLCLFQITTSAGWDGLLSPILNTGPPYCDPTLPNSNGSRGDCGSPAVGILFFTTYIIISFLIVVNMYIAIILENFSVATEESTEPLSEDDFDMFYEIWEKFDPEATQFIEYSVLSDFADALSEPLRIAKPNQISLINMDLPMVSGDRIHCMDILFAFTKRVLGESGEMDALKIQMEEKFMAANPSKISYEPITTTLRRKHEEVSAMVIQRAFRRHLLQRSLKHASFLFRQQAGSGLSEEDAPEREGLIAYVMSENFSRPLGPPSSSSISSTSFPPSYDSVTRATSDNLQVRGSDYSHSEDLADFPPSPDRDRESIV
# Sequence of hNav1.7 (Q15858 whole entry, looked up): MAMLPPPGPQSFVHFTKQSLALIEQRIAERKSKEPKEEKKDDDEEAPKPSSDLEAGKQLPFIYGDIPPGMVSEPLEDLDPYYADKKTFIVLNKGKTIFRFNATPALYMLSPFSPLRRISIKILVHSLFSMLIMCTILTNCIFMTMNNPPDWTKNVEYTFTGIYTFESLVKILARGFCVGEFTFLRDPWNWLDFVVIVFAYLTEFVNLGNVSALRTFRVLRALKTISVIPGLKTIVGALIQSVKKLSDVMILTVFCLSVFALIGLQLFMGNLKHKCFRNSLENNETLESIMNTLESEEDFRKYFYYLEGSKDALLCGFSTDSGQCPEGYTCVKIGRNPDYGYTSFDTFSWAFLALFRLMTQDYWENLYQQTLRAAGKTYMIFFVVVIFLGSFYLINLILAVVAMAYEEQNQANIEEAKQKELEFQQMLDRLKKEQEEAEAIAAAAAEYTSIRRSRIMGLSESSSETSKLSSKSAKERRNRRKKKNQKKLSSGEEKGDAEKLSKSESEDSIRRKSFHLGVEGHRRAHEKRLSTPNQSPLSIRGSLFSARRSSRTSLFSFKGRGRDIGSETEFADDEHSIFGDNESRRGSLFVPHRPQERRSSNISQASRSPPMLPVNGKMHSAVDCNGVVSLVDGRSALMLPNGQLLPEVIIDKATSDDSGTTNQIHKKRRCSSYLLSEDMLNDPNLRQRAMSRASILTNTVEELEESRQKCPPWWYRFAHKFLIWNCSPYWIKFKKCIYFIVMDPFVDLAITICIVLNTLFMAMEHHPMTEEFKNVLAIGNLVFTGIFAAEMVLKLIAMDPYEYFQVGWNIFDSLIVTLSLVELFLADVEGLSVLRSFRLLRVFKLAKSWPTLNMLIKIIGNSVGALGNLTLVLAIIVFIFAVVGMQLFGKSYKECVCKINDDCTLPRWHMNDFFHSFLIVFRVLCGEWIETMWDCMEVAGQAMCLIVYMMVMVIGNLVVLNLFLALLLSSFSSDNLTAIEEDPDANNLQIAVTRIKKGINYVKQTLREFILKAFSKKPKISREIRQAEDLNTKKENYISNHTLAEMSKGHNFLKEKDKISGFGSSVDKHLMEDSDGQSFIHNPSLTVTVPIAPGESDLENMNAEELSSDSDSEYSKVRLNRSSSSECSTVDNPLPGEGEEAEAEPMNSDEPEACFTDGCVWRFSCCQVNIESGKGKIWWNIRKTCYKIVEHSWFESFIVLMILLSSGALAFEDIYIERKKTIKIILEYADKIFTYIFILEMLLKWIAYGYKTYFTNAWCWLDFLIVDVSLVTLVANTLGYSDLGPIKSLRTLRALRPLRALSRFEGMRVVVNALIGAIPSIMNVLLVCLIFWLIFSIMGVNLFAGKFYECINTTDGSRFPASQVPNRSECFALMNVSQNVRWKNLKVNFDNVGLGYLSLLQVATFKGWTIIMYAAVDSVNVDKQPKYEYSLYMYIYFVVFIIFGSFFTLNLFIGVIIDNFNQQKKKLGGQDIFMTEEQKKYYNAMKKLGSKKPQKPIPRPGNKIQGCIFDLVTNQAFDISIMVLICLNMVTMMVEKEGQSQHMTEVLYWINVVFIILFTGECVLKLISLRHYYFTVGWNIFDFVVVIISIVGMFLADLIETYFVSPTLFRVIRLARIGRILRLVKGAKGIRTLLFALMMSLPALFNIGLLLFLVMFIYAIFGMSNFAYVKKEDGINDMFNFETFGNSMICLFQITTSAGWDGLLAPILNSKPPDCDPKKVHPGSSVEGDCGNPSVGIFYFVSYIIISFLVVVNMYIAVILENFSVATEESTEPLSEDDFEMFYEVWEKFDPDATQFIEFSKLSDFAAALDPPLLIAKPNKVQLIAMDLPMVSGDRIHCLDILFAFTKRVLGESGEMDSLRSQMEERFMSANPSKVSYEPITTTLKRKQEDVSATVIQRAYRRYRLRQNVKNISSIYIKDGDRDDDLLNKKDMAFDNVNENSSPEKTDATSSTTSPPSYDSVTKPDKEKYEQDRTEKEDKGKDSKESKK
structure (smiles),measurement,setting,value
"CC[C@H](C)[C@@H]1NC(=O)[C@@H]2CSSC[C@@H]3NC(=O)[C@H](C(C)C)NC(=O)[C@H](CC(C)C)NC(=O)[C@H](CC(N)=O)NC(=O)[C@@H]4CCCN4C(=O)[C@H](CCCNC(=N)N)NC(=O)[C@H](CSSC[C@H](NC(=O)[C@@H](N)CC(=O)O)C(=O)N[C@@H](CC(C)C)C(=O)NCC(=O)N[C@@H](C)C(=O)N[C@@H](Cc4ccccc4)C(=O)N[C@@H](CCCNC(=N)N)C(=O)N[C@@H](CCCCN)C(=O)N2)NC(=O)[C@H](CSSC[C@@H](C(=O)N[C@@H](CCCCN)C(=O)N[C@@H](Cc2ccc(O)cc2)C(=O)N[C@H](C(=O)N[C@@H](Cc2ccccc2)C(=O)O)C(C)C)NC(=O)[C@H](Cc2c[nH]c4ccccc24)NC(=O)[C@H](CC(C)C)NC(=O)[C@H](Cc2c[nH]cn2)NC(=O)[C@H]([C@@H](C)O)NC(=O)[C@H](CCCNC(=N)N)NC(=O)[C@H](CO)NC3=O)NC(=O)[C@H](CCCCN)NC(=O)[C@H](CC(=O)O)NC(=O)[C@H](CC(N)=O)NC(=O)[C@H](CC(=O)O)NC(=O)[C@@H]2CCCN2C1=O [compound 830] (H-DCLGAFRKCIPDNDKCCRPNLVCSRTHLWCKYVF-OH; disulfide 2-17, 9-23, 16-30)",pIC50,"hNav1.5; use-dependent block, hNav1.5",< 5.30
same,pIC50,"hNav1.3; use-dependent block, hNav1.3",< 5.30
same,pIC50,"hNav1.7; use-dependent block, hNav1.7",< 5.30
"CC[C@H](C)[C@H](NC(=O)[C@H](Cc1ccc(O)cc1)NC(=O)[C@H](CCCCN)NC(=O)[C@@H]1CSSC[C@@H]2NC(=O)[C@H](CCCCN)NC(=O)[C@H](CC(=O)O)NC(=O)[C@H](CC(N)=O)NC(=O)[C@H](CC(=O)O)NC(=O)[C@@H]3CCCN3C(=O)[C@H]([C@@H](C)CC)NC(=O)[C@@H]3CSSC[C@H](NC(=O)[C@H](C(C)C)NC(=O)[C@H](CC(C)C)NC(=O)[C@H](CC(N)=O)NC(=O)[C@@H]4CCCN4C(=O)[C@H](CCCNC(=N)N)NC(=O)[C@H](CSSC[C@H](NC(=O)[C@@H](N)CC(=O)O)C(=O)N[C@@H](CC(C)C)C(=O)NCC(=O)N[C@@H](Cc4ccccc4)C(=O)N[C@@H](CCSC)C(=O)N[C@@H](CCCNC(=N)N)C(=O)N[C@@H](CCCCN)C(=O)N3)NC2=O)C(=O)N[C@@H](CO)C(=O)N[C@@H](CCCNC(=N)N)C(=O)N[C@@H]([C@@H](C)O)C(=O)N[C@@H](Cc2c[nH]cn2)C(=O)N[C@@H](CCCCN)C(=O)N[C@@H](Cc2c[nH]c3ccccc23)C(=O)N1)C(=O)N[C@@H](Cc1ccccc1)C(N)=O [compound 248] (H-DCLGFMRKCIPDNDKCCRPNLVCSRTHKWCKYIF-NH2; disulfide 2-17, 9-23, 16-30)",pIC50,"hNav1.5; Table 26, use, […]",5.16
same,pIC50,"hNav1.3; Table 26, use, […]",7.05
same,pIC50,"hNav1.7; Table 26, use, […]",6.82
"CSCC[C@@H]1NC(=O)[C@H](C(C)C)NC(=O)CNC(=O)[C@H](CC(C)C)NC(=O)[C@@H](NC(=O)[C@@H](N)CC(=O)O)CSSC[C@@H]2NC(=O)[C@@H]3CSSC[C@@H](C(=O)N[C@@H](CCCCN)C(=O)N[C@@H](Cc4ccc(O)cc4)C(=O)N[C@H](C(=O)N[C@@H](Cc4ccccc4)C(N)=O)C(C)C)NC(=O)[C@H](Cc4c[nH]c5ccccc45)NC(=O)[C@H](CCCCN)NC(=O)[C@H](Cc4c[nH]cn4)NC(=O)[C@H]([C@@H](C)O)NC(=O)[C@H](CCCNC(=N)N)NC(=O)[C@H](CO)NC(=O)[C@H](CSSC[C@H](NC(=O)[C@H](CCCCN)NC(=O)[C@H](CCCNC(=N)N)NC1=O)C(=O)N[C@@H](CC(=O)O)C(=O)N1CCC[C@H]1C(=O)N[C@@H](CC(=O)O)C(=O)N[C@@H](CC(N)=O)C(=O)N[C@@H](CC(=O)O)C(=O)N[C@@H](CCCCN)C(=O)N3)NC(=O)[C@H](C(C)C)NC(=O)[C@H](CC(C)C)NC(=O)[C@H](CC(N)=O)NC(=O)[C@@H]1CCCN1C(=O)[C@H](CCCNC(=N)N)NC2=O [compound 710] (H-DCLGVMRKCDPDNDKCCRPNLVCSRTHKWCKYVF-NH2; disulfide 2-17, 9-23, 16-30)",pIC50,"hNav1.5; use-dependent protocol, hNav1.5",4.46
same,pIC50,"hNav1.3; use-dependent protocol, hNav1.3",5.89
same,pIC50,"hNav1.7; use-dependent protocol, hNav1.7",6.16
"CC[C@H](C)[C@@H]1NC(=O)[C@@H]2CSSC[C@@H]3NC(=O)[C@H](C(C)C)NC(=O)[C@H](CC(C)C)NC(=O)[C@H](CC(N)=O)NC(=O)[C@@H]4CCCN4C(=O)[C@H](CCCNC(=N)N)NC(=O)[C@H](CSSC[C@H](NC(=O)[C@@H](N)CC(=O)O)C(=O)N[C@@H](CC(C)C)C(=O)NCC(=O)N[C@@H](C)C(=O)N[C@@H](Cc4ccccc4)C(=O)N[C@@H](CCCNC(=N)N)C(=O)N[C@@H](CCCCN)C(=O)N2)NC(=O)[C@H](CSSC[C@@H](C(=O)N[C@@H](CCCCN)C(=O)N[C@@H](Cc2ccc(O)cc2)C(=O)N[C@H](C(=O)N[C@@H](Cc2ccccc2)C(=O)O)C(C)C)NC(=O)[C@H](Cc2c[nH]c4ccccc24)NC(=O)[C@H](CCC(N)=O)NC(=O)[C@H](Cc2c[nH]cn2)NC(=O)[C@H]([C@@H](C)O)NC(=O)[C@H](CCCNC(=N)N)NC(=O)[C@H](CO)NC3=O)NC(=O)[C@H](CCCCN)NC(=O)[C@H](CC(=O)O)NC(=O)[C@H](CC(N)=O)NC(=O)[C@H](CC(=O)O)NC(=O)[C@@H]2CCCN2C1=O [compound 834] (H-DCLGAFRKCIPDNDKCCRPNLVCSRTHQWCKYVF-OH; disulfide 2-17, 9-23, 16-30)",pIC50,"hNav1.5; use-dependent block, hNav1.5",< 5.30
same,pIC50,"hNav1.3; use-dependent block, hNav1.3",5.41
same,pIC50,"hNav1.7; use-dependent block, hNav1.7",< 5.30
"CC[C@H](C)[C@@H]1NC(=O)[C@@H]2CSSC[C@@H]3NC(=O)[C@H](C(C)C)NC(=O)[C@H](CC(C)C)NC(=O)[C@H](CC(N)=O)NC(=O)[C@@H]4CCCN4C(=O)[C@H](Cc4c[nH]c5ccccc45)NC(=O)[C@H](CSSC[C@H](NC(=O)[C@@H](N)CC(=O)O)C(=O)N[C@@H](CC(C)C)C(=O)NCC(=O)N[C@@H](Cc4ccccc4)C(=O)N[C@@H](CCSC)C(=O)N[C@@H](CCCNC(=N)N)C(=O)N[C@@H](CCCCN)C(=O)N2)NC(=O)[C@H](CSSC[C@@H](C(=O)N[C@@H](CCCCN)C(=O)N[C@@H](Cc2ccc(O)cc2)C(=O)N[C@H](C(=O)N[C@@H](Cc2ccccc2)C(N)=O)C(C)C)NC(=O)[C@H](Cc2c[nH]c4ccccc24)NC(=O)[C@H](CCCCN)NC(=O)[C@H](Cc2c[nH]cn2)NC(=O)[C@H]([C@@H](C)O)NC(=O)[C@H](CCCNC(=N)N)NC(=O)[C@H](CO)NC3=O)NC(=O)[C@H](CCCCN)NC(=O)[C@H](CC(=O)O)NC(=O)[C@H](CC(N)=O)NC(=O)[C@H](CC(=O)O)NC(=O)[C@@H]2CCCN2C1=O [compound 174] (H-DCLGFMRKCIPDNDKCCWPNLVCSRTHKWCKYVF-NH2; disulfide 2-17, 9-23, 16-30)",pIC50,hNav1.5; Use,4.83
same,pIC50,hNav1.3; Use,7.10
same,pIC50,hNav1.7; Use,6.72
"CC[C@H](C)[C@@H]1NC(=O)[C@@H]2CSSC[C@@H]3NC(=O)[C@H](C(C)C)NC(=O)[C@H](CC(C)C)NC(=O)[C@H](CC(N)=O)NC(=O)[C@@H]4CCCN4C(=O)[C@H](CCCNC(=N)N)NC(=O)[C@H](CSSC[C@H](NC(=O)[C@@H](N)CC(=O)O)C(=O)N[C@@H](CC(C)C)C(=O)NCC(=O)NCC(=O)N[C@@H](CCSC)C(=O)N[C@@H](CCCNC(=N)N)C(=O)N[C@@H](CCCCN)C(=O)N2)NC(=O)[C@H](CSSC[C@@H](C(=O)N[C@@H](CCCCN)C(=O)N[C@@H](Cc2ccc(O)cc2)C(=O)N[C@H](C(=O)N[C@@H](Cc2ccccc2)C(N)=O)C(C)C)NC(=O)[C@H](Cc2c[nH]c4ccccc24)NC(=O)[C@H](CCCCN)NC(=O)[C@H](Cc2cnc[nH]2)NC(=O)[C@H]([C@@H](C)O)NC(=O)[C@H](CCCNC(=N)N)NC(=O)[C@H](CO)NC3=O)NC(=O)[C@H](CCCCN)NC(=O)[C@H](CC(=O)O)NC(=O)[C@H](CC(N)=O)NC(=O)[C@H](CC(=O)O)NC(=O)[C@@H]2CCCN2C1=O [SEQ ID NO: 265] (H-DCLGGMRKCIPDNDKCCRPNLVCSRTHKWCKYVF-NH2; disulfide 2-17, 9-23, 16-30)",pIC50,hNav1.5; [1],5.13
same,pIC50,hNav1.3; [1],5.91
same,pIC50,hNav1.7; [1],6.12
CC[C@H](C)[C@@H]1NC(=O)[C@@H]2CSSC[C@@H]3NC(=O)[C@H](C(C)C)NC(=O)[C@H](CC(C)C)NC(=O)[C@H](CC(N)=O)NC(=O)[C@@H]4CCCN4C(=O)[C@H](CCCNC(=N)N)NC(=O)[C@H](CSSC[C@H](NC(=O)[C@H](CC(=O)O)NC(=O)[C@@H](N)CCCCN)C(=O)N[C@@H](CC(C)C)C(=O)NCC(=O)N[C@@H](Cc4ccccc4)C(=O)N[C@@H](CCSC)C(=O)N[C@@H](CCCNC(=N)N)C(=O)N[C@@H](CCCCN)C(=O)N2)NC(=O)[C@H](CSSC[C@@H](C(=O)N[C@@H](CCCCN)C(=O)N[C@@H](Cc2ccc(O)cc2)C(=O)N[C@H](C(=O)N[C@@H](Cc2ccccc2)C(N)=O)C(C)C)NC(=O)[C@H](Cc2c[nH]c4ccccc24)NC(=O)[C@H](CCCCN)NC(=O)[C@H](Cc2cnc[nH]2)NC(=O)[C@H]([C@@H](C)O)NC(=O)[C@H](CCCNC(=N)N)NC(=O)[C@H](CO)NC3=O)NC(=O)[C@H](CCCCN)NC(=O)[C@H](CC(=O)O)NC(=O)[C@H](CC(N)=O)NC(=O)[C@H](CC(=O)O)NC(=O)[C@@H]2CCCN2C1=O [SEQ ID NO: 36],pIC50,hNav1.5; [1],5.08
same,pIC50,hNav1.3; [1],7.00
same,pIC50,hNav1.7; [1],6.96
